Test system: BHK-21 cells
Test: BHK-21 cell proliferation (cell growth) activity
Assay type: cell-based, hamster
Settings: 3 days culture, compared with medium control
Experimental: Cell growth activities of the samples were measured as BHK (baby hamster kidney) −21 cell proliferation activity, following the known method (Planta Med., 62,115-118,1996, and others). In detail, BHK-21 cells (1×10^4) were cultured in Eagle's minimum essential medium supplemented with 5% fetal bovine serum and 2 mM glutamine, for 3 days at 37° C. with different concentration (μg/ml) of test samples in 5% CO2/air at pH 7.2. The cells were treated with a mixture of trypsin and 0.02% EDTA solution to detach the cells from each well. The cells were harvested and the numbers of total viable cells were counted. The viability of the cells was determined by the method of dye-exclusion test using 0.4% trypan blue solution. The cell growth activity (%) was determined by comparing with the control cells (medium control).

With `O=C1NC(CO)C(=O)N2C[C@H](O)CC12` (stereo partly shown) [Compound 2, 3′-Hydroxymethyl-4-hydroxypyrrolido [1,2-f] 2′, 5′-piperazinedione] the cell growth activity was “showed the cell growth activity”.

— US6635620B1, “Hydroxyproline derivatives” (Japan Bioproducts Ind. Co., Ltd., priority 1998, dated 2003)
